The target of assay [1] is T1, Protein-arginine deiminase type-4 (Homo sapiens, UniProt Q9UM07). Briefly: Inhibition of PAD4 by ABPP-based assay.
In assay [2] the target is T1, Protein-arginine deiminase type-4. Briefly: Inhibition of PAD4 measured by intercept plot of Lineweaver-Burke analyses.
The target is the same in assay [3]. Briefly: Inhibition of PAD4 measured by slope plot of Lineweaver-Burke analyses.

Some results are limits rather than exact numbers.

This passage reports IC50 and Ki results from ChEMBL document CHEMBL1143172, “Profiling Protein Arginine Deiminase 4 (PAD4): a novel screen to identify PAD4 inhibitors” (Bioorg Med Chem, 2008).

A word on the IC50: it is the concentration at which inhibition is half-maximal. High values mean a need for much substance, low ones inhibition by little substance. Usually Ki stands for a dissociation constant, usually derived from enzyme kinetics or from competition with a known ligand. Read a low Ki as tighter binding.

T1 sequence (Q9UM07 whole entry): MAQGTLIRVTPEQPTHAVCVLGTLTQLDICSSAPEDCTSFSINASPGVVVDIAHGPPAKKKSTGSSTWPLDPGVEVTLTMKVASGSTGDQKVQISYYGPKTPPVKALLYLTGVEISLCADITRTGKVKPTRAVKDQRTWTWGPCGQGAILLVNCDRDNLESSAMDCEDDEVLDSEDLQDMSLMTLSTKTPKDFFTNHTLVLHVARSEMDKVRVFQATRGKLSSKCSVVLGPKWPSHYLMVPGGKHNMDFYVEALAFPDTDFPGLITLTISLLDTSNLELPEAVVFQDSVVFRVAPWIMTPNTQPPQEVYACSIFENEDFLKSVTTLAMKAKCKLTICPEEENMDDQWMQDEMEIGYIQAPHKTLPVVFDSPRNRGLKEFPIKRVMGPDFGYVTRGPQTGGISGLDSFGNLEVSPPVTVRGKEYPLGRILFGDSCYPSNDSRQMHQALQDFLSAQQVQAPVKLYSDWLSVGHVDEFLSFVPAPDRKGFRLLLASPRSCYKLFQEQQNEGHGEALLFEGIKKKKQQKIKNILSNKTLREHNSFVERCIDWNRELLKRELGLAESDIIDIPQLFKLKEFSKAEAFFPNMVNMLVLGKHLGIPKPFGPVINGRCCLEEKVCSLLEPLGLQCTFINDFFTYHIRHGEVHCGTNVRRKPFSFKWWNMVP

`CN(C)c1ccc(O)c2c1C[C@H]1CC3[C@H](N(C)C)C(O)=C(C(N)=O)C(=O)C3(O)C(O)=C1C2=O` (single isomer, unassigned) [MINOCYCLINE]: in assay [1], the IC50 is 620 µM. For the same compound, the Ki stood at 630 µM in assay [2] and 180 µM in assay [3].

As to `Cn1cnc([N+](=O)[O-])c1Sc1ncnc2nc[nH]c12` [AZATHIOPRINE], the concentration for half-maximal inhibition (IC50) in assay [1] turned out to be 8100 µM.

Consider `CC[C@H]1OC(=O)[C@H](C)[C@@H](O[C@H]2C[C@@](C)(OC)[C@@H](O)[C@H](C)O2)[C@H](C)[C@@H](O[C@@H]2O[C@H](C)C[C@H](N(C)C)[C@H]2O)[C@](C)(O)C[C@@H](C)CN(C)[C@H](C)[C@@H](O)[C@]1(C)O` [AZITHROMYCIN], for which, in assay [1], the IC50 is greater than 10000 µM.

For the compound `Cc1oncc1C(=O)Nc1ccc(C(F)(F)F)cc1` [LEFLUNOMIDE], the IC50 in assay [1] turned out to be 2400 µM.

For the compound `CN(Cc1cnc2nc(N)nc(N)c2n1)c1ccc(C(=O)N[C@@H](CCC(=O)O)C(=O)O)cc1` [METHOTREXATE], in assay [1], the IC50 was greater than 10000 µM.

Regarding `Cc1cc(NS(=O)(=O)c2ccc(N)cc2)no1` [SULFAMETHOXAZOLE], in assay [1], the IC50 was greater than 10000 µM.

As to `CN(C)[C@@H]1C(O)=C(C(N)=O)C(=O)[C@@]2(O)C(O)=C3C(=O)c4c(O)cccc4[C@@](C)(O)[C@H]3C[C@@H]12` [TETRACYCLINE], in assay [1], inhibition was half-maximal at 780 µM (IC50).
